# PubChem BioAssay AID256 (DTP/NCI, 2004)
# Several values for one entry are separate records, joined by “and”; a condition that tells them apart may be missing. Identical values can stand only once. Toxic doses and inconclusive results are not listed. Residues, ends and D or L forms follow the SMILES beside them. *: point of attachment. Cbz = O=C(OCc1ccccc1)*
# Test system: CD2F1 mice, L1210 leukemia ip, survival T/C
# Assay: NCI In Vivo Anticancer Drug Screen. Data for tumor model L1210 Leukemia (intraperitoneal) in CD2F1 (CDF1) mice
# Details: higher = longer survival
# Method in brief: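 Compound-dosed mice with transplantable tumor versus matched vehicle controls; endpoint ratio T/C reported.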
# [1] = endpoint: mean survival time, dose: 100.0 mg/kg/injection, schedule: Q01DX009 (ip), vehicle: Klucel (hydroxypropylcellulose) (HPC)
# [2] = endpoint: mean survival time, dose: 200.0 mg/kg/injection, schedule: Q01DX009 (ip), vehicle: Klucel (hydroxypropylcellulose) (HPC)
# [3] = endpoint: mean survival time, dose: 50.0 mg/kg/injection, schedule: Q04DX002 (ip), vehicle: saline with Tween-80
# [4] = endpoint: mean survival time, dose: 100.0 mg/kg/injection, schedule: Q01DX009 (ip), vehicle: saline
# [5] = endpoint: mean survival time, dose: 200.0 mg/kg/injection, schedule: Q01DX009 (ip), vehicle: saline
smiles,measurement,setting,value
O=C1/C(=C/c2ccccc2[N+](=O)[O-])CCc2ccccc21,T/C,[1],97 % of control
same,T/C,[2],91 % of control
same,T/C,"endpoint: mean survival time, dose: 400.0 mg/kg/injection, schedule: Q01DX009 (ip), vehicle: Klucel (hydroxypropylcellulose) (HPC)",96 % of control
CN(C=O)NC(=O)Nc1ccccc1,T/C,"endpoint: mean survival time, dose: 75.0 mg/kg/injection, schedule: Q01DX001 (ip), vehicle: saline",100 % of control
same,T/C,"endpoint: mean survival time, dose: 150.0 mg/kg/injection, schedule: Q01DX001 (ip), vehicle: saline",100 % of control
same,T/C,"endpoint: mean survival time, dose: 300.0 mg/kg/injection, schedule: Q01DX001 (ip), vehicle: saline",102 % of control
CC(CN=Cc1ccccc1N)N=Cc1ccccc1N (stereo not drawn),T/C,[3],93 % of control
same,T/C,"endpoint: mean survival time, dose: 100.0 mg/kg/injection, schedule: Q04DX002 (ip), vehicle: saline with Tween-80",97 % of control
same,T/C,"endpoint: mean survival time, dose: 200.0 mg/kg/injection, schedule: Q04DX002 (ip), vehicle: saline with Tween-80",97 % of control
same,T/C,"endpoint: mean survival time, dose: 400.0 mg/kg/injection, schedule: Q04DX002 (ip), vehicle: saline with Tween-80",113 % of control
CNC=O,T/C,[4],103 % of control and 111 % of control
same,T/C,[5],112 % of control
same,T/C,"endpoint: mean survival time, dose: 800.0 mg/kg/injection, schedule: Q01DX009 (ip), vehicle: saline",164 % of control
O=C([O][Bi]([c]1ccccc1)[c]1ccccc1)c1ccccc1,T/C,"endpoint: median survival time, dose: 6.25 mg/kg/injection, schedule: Q01DX009 (ip), vehicle: Klucel (hydroxypropylcellulose) (HPC)",97 % of control
same,T/C,"endpoint: median survival time, dose: 12.5 mg/kg/injection, schedule: Q01DX009 (ip), vehicle: Klucel (hydroxypropylcellulose) (HPC)",95 % of control
same,T/C,"endpoint: median survival time, dose: 25.0 mg/kg/injection, schedule: Q01DX009 (ip), vehicle: Klucel (hydroxypropylcellulose) (HPC)",101 % of control
CC(=O)c1ccc2c3ccccc3n(C)c2c1,T/C,"endpoint: mean survival time, dose: 50.0 mg/kg/injection, schedule: Q01DX009 (ip), vehicle: Klucel (hydroxypropylcellulose) (HPC)",93 % of control
same,T/C,[1],93 % of control
same,T/C,[2],93 % of control
CCn1ccc(=O)nc1,T/C,"endpoint: mean survival time, dose: 12.5 mg/kg/injection, schedule: Q04DX002 (ip), vehicle: saline with Tween-80",95 % of control
same,T/C,"endpoint: mean survival time, dose: 25.0 mg/kg/injection, schedule: Q04DX002 (ip), vehicle: saline with Tween-80",95 % of control
same,T/C,[3],106 % of control
CCCn1c(O)c(C=N)c(=O)n(CCC)c1=O,T/C,"endpoint: mean survival time, dose: 100.0 mg/kg/injection, schedule: Q01DX009 (ip), vehicle: saline with Tween-80",98 % of control
same,T/C,"endpoint: mean survival time, dose: 100.0 mg/kg/injection, schedule: Q04DX003 (ip), vehicle: saline with Tween-80",96 % of control
same,T/C,"endpoint: mean survival time, dose: 200.0 mg/kg/injection, schedule: Q01DX009 (ip), vehicle: saline with Tween-80",101 % of control
same,T/C,"endpoint: mean survival time, dose: 200.0 mg/kg/injection, schedule: Q04DX003 (ip), vehicle: saline with Tween-80",97 % of control
same,T/C,"endpoint: mean survival time, dose: 400.0 mg/kg/injection, schedule: Q01DX009 (ip), vehicle: saline with Tween-80",101 % of control
same,T/C,"endpoint: mean survival time, dose: 400.0 mg/kg/injection, schedule: Q04DX003 (ip), vehicle: saline with Tween-80",100 % of control
NC(=O)CNC(=O)CNC(=O)CNC(=O)OCc1ccccc1 (Cbz-Gly-Gly-Gly-NH2),T/C,"endpoint: mean survival time, dose: 12.5 mg/kg/injection, schedule: Q01DX009 (ip), vehicle: saline with Tween-80",105 % of control
same,T/C,"endpoint: mean survival time, dose: 25.0 mg/kg/injection, schedule: Q01DX009 (ip), vehicle: saline with Tween-80",102 % of control
same,T/C,"endpoint: mean survival time, dose: 50.0 mg/kg/injection, schedule: Q01DX009 (ip), vehicle: saline with Tween-80",95 % of control
CN(C)CCN(Cc1ccc(Cl)cc1)c1ccccn1,T/C,"endpoint: mean survival time, dose: 3.13 mg/kg/injection, schedule: Q01DX009 (ip), vehicle: saline with Tween-80",95 % of control
same,T/C,"endpoint: mean survival time, dose: 6.25 mg/kg/injection, schedule: Q01DX009 (ip), vehicle: saline with Tween-80",109 % of control
CN(C)CCCCO,T/C,"endpoint: mean survival time, dose: 50.0 mg/kg/injection, schedule: Q01DX009 (ip), vehicle: saline",98 % of control
same,T/C,[4],98 % of control
same,T/C,"endpoint: mean survival time, dose: 100.0 mg/kg/injection, schedule: Q04DX003 (ip), vehicle: saline",95 % of control
same,T/C,[5],97 % of control
same,T/C,"endpoint: mean survival time, dose: 200.0 mg/kg/injection, schedule: Q04DX003 (ip), vehicle: saline",96 % of control
